The values that follow come from patent publication US20100297261A1, “Food Product and Fortification System Therefor” (priority 2005, published 2010).

For series [1] the following is noted: guinea pigs; split by α-glucosidase in brush border of small intestine; cited from earlier work.
For series [2] the following is noted: humans; split by hydrolases in the small intestine; cited from earlier work.
Series [3] in a line: In vitro estimation of iron dialyzability (dough, simulated gastrointestinal conditions).
Experimental: All glass vessels used were incubated over night in 10% (v/v) HNO3 in water and subsequently rinsed with demineralised water. […] The dough was divided in portions of 16 g and stored at −20° C. until dissolution experiments took place.
The dough portions were suspended in water and homogenized for 10 s with a Braun Blender (type 4142) set at maximum speed. Subsequently, water, 0.45 g pepsin and HCl were added to a yield a 90 ml suspension of dough in simulated gastric fluid of pH 2.0. A 20 g sample was taken from the homogenous suspension for determination of total iron. The suspension was transferred to the vessel of a dissolution apparatus (VanK1 VK700, Varian; United States Pharmacopoeia (USP) dissolution apparatus, type II. Conditions for rotations per minute enzyme types and concentrations etc. taken as in the USP; <711> Dissolution; USP26/NF21; 2003; p. 1578-1579). […]
Dialyzable iron (sum of Fe^2+ and Fe^3+) was determined using a Hitachi 912 Analyser and reagents for the analysis of iron in human serum based on FerroZine (Roche Diagnostics Nederland BV). […]
Dialyzable iron is expressed as the percentage of the total iron present in the digest, assuming that it had equilibrated across the dialysis membrane by the time the content of the dialysis bag was collected.

Each structure is given as a SMILES string.

Consider `O=C1O[C@H]([C@@H](O)CO)C(O)=C1O[C@H]1O[C@H](CO)[C@@H](O)[C@H](O)[C@H]1O` [AA-2G, 2-O-α-D-glucopyranosyl-L-ascorbic acid], for which the “Intestinal absorption of intact compound” value in series [1] is listed as “cannot be absorbed”. Moreover, the “Free ascorbic acid in the blood after consumption” value in series [2] is on record as “significant increase in free ascorbic acid in the blood”.
For `O=S(=O)([O-])[O-].[Fe+2]` [Ferrous sulphate, ferrous sulphate], the “In vitro dialyzable Ionic iron (% of total iron)” value in series [3] (dough with 50 mg/Kg iron from ferrous sulphate, Fe:enhancer 1:3, means ± SD of 4 or 5 experiments) was 3.4 ± 1.8 % of total iron. Further, the Relative availability in series [3] (relative to the availability of iron from FeSO4) is reported as 1.0.
